According to PubChem BioAssay AID248 (DTP/NCI, 2004):
Inconclusive results and toxic doses are left out. Rule as the data show it: active = T/C of 150% or more; inactive = T/C below 125%.

Test system: L1210 leukemia ip in BDF1 mice, survival T/C
Assay: NCI In Vivo Anticancer Drug Screen. Data for tumor model L1210 Leukemia (intraperitoneal) in B6D2F1 (BDF1) mice
Details: endpoint: mean survival time, higher = longer survival
Method in brief: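 Transplantable tumor model; survival measured in treated vs vehicle control mice. Value = treated/control.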

[1] = dose: 100.0 mg/kg/injection, schedule: Q01DX001 (ip), vehicle: saline
[2] = dose: 200.0 mg/kg/injection, schedule: Q01DX001 (ip), vehicle: saline
[3] = dose: 400.0 mg/kg/injection, schedule: Q01DX001 (ip), vehicle: saline
[4] = dose: 100.0 mg/kg/injection, schedule: Q04DX003 (ip), vehicle: Klucel (hydroxypropylcellulose) (HPC)
[5] = dose: 200.0 mg/kg/injection, schedule: Q04DX003 (ip), vehicle: Klucel (hydroxypropylcellulose) (HPC)
[6] = dose: 100.0 mg/kg/injection, schedule: Q04DX003 (ip), vehicle: saline with Tween-80
[7] = dose: 200.0 mg/kg/injection, schedule: Q04DX003 (ip), vehicle: saline with Tween-80
[8] = dose: 400.0 mg/kg/injection, schedule: Q04DX003 (ip), vehicle: saline with Tween-80
[9] = dose: 100.0 mg/kg/injection, schedule: Q04DX002 (ip), vehicle: Klucel (hydroxypropylcellulose) (HPC)
[10] = dose: 200.0 mg/kg/injection, schedule: Q04DX002 (ip), vehicle: Klucel (hydroxypropylcellulose) (HPC)
[11] = dose: 400.0 mg/kg/injection, schedule: Q04DX002 (ip), vehicle: Klucel (hydroxypropylcellulose) (HPC)
[12] = dose: 50.0 mg/kg/injection, schedule: Q04DX002 (ip), vehicle: Klucel (hydroxypropylcellulose) (HPC)
[13] = dose: 50.0 mg/kg/injection, schedule: Q01DX001 (ip), vehicle: carboxymethylcellulose (CMC)
[14] = dose: 100.0 mg/kg/injection, schedule: Q01DX001 (ip), vehicle: carboxymethylcellulose (CMC)
[15] = dose: 200.0 mg/kg/injection, schedule: Q01DX001 (ip), vehicle: carboxymethylcellulose (CMC)
[16] = dose: 400.0 mg/kg/injection, schedule: Q01DX001 (ip), vehicle: carboxymethylcellulose (CMC)

Measured: T/C

O=[N+]([O-])c1ccc(O)c(N=Cc2ccccn2)c1
inactive: [1] 90 % of control | [2] 90 % of control | [3] 100 % of control

Cc1c2c(cc3c1CCCC3)CCCC2
inactive: dose: 100.0 mg/kg/injection, schedule: Q01DX001 (ip), vehicle: saline with Tween-80 93 % of control | dose: 200.0 mg/kg/injection, schedule: Q01DX001 (ip), vehicle: saline with Tween-80 93 % of control | dose: 400.0 mg/kg/injection, schedule: Q01DX001 (ip), vehicle: saline with Tween-80 92 % of control

CC(C)N(C)C(C1=CC(C)(C)c2ccccc2C1=O)c1ccccc1 (stereo not given)
inactive: [4] 108 % of control | [5] 101 % of control | dose: 400.0 mg/kg/injection, schedule: Q04DX003 (ip), vehicle: Klucel (hydroxypropylcellulose) (HPC) 101 % of control

CC(C)(C)c1ccc(SC(=O)NCCCl)cc1
inactive: dose: 20.0 mg/kg/injection, schedule: Q04DX003 (ip), vehicle: Klucel (hydroxypropylcellulose) (HPC) 97 % of control | dose: 40.0 mg/kg/injection, schedule: Q04DX003 (ip), vehicle: Klucel (hydroxypropylcellulose) (HPC) 98 % of control | dose: 80.0 mg/kg/injection, schedule: Q04DX003 (ip), vehicle: Klucel (hydroxypropylcellulose) (HPC) 90 % of control | [4] 106 % of control | [5] 91 % of control

COc1cccc(/C=C/C(=O)c2ccc(Cl)cc2)c1OC
inactive: dose: 100.0 mg/kg/injection, schedule: Q01DX009 (ip), vehicle: saline with Tween-80 101 % of control | [6] 96 % of control | dose: 200.0 mg/kg/injection, schedule: Q01DX009 (ip), vehicle: saline with Tween-80 88 % of control | [7] 91 % of control | dose: 400.0 mg/kg/injection, schedule: Q01DX009 (ip), vehicle: saline with Tween-80 87 % of control | [8] 90 % of control

CC#CCCC(=O)OCCCCC
inactive: dose: 100.0 mg/kg/injection, schedule: Q04DX002 (ip), vehicle: saline with Tween-80 97 % of control | dose: 200.0 mg/kg/injection, schedule: Q04DX002 (ip), vehicle: saline with Tween-80 102 % of control

C=CCOC(=O)C1(O)c2ccccc2NC(=S)N1CC=C (stereo not given)
inactive: dose: 100.0 mg/kg/injection, schedule: Q01DX009 (ip), vehicle: Klucel (hydroxypropylcellulose) (HPC) 104 % of control | [9] 97 % of control | dose: 200.0 mg/kg/injection, schedule: Q01DX009 (ip), vehicle: Klucel (hydroxypropylcellulose) (HPC) 93 % of control | [10] 97 % of control | dose: 400.0 mg/kg/injection, schedule: Q01DX009 (ip), vehicle: Klucel (hydroxypropylcellulose) (HPC) 93 % of control | [11] 100 % of control

Clc1cnc[nH]1
inactive: dose: 25.0 mg/kg/injection, schedule: Q01DX009 (ip), vehicle: saline 105 % of control | dose: 50.0 mg/kg/injection, schedule: Q01DX009 (ip), vehicle: saline 108 % of control | [1] 102 % of control | dose: 100.0 mg/kg/injection, schedule: Q01DX009 (ip), vehicle: saline 105 % of control | [2] 110 % of control | [3] 102 % of control

Cc1cccc(Cl)c1OC(=O)Nc1ccccc1
inactive: [12] 98 % of control | [9] 98 % of control | [10] 102 % of control

Cc1cnc(Cl)c(Br)c1
inactive: [6] 100 % of control | [7] 102 % of control | [8] 98 % of control

CC1(C)OC2C(C(=O)N(CCO)CCO)OC(n3cnc4c(N)ncnc43)C2O1 (stereo not given)
inactive: dose: 75.0 mg/kg/injection, schedule: Q01DX001 (ip), vehicle: saline 102 % of control | dose: 75.0 mg/kg/injection, schedule: Q04DX003 (ip), vehicle: saline 106 % of control | dose: 150.0 mg/kg/injection, schedule: Q01DX001 (ip), vehicle: saline 104 % of control | dose: 150.0 mg/kg/injection, schedule: Q04DX003 (ip), vehicle: saline 106 % of control | dose: 300.0 mg/kg/injection, schedule: Q01DX001 (ip), vehicle: saline 101 % of control | dose: 300.0 mg/kg/injection, schedule: Q04DX003 (ip), vehicle: saline 107 % of control

O=C(/C=C\c1ccccc1)OCc1ccccc1CN1CCCCC1
inactive: [9] 108 % of control | [10] 116 % of control | [11] 90 % of control

O=CC(OC(=O)c1ccccc1)C(OC(=O)c1ccccc1)C(COC(c1ccccc1)(c1ccccc1)c1ccccc1)OC(=O)c1ccccc1 (stereo not given)
inactive: [13] 97 % of control | [14] 103 % of control | [15] 103 % of control | [16] 91 % of control

CN1c2ccccc2C(C)(C)C12C=Cc1ccccc1O2 (stereo not given)
inactive: dose: 25.0 mg/kg/injection, schedule: Q04DX002 (ip), vehicle: gum acacia 111 % of control | dose: 50.0 mg/kg/injection, schedule: Q04DX002 (ip), vehicle: gum acacia 103 % of control | dose: 100.0 mg/kg/injection, schedule: Q04DX002 (ip), vehicle: gum acacia 88 % of control | dose: 200.0 mg/kg/injection, schedule: Q04DX002 (ip), vehicle: gum acacia 94 % of control

O=[N+]([O-])c1ccc(OCc2ccc(S(=O)(=O)Oc3cccnc3)cc2)c(Cl)c1
inactive: dose: 100.0 mg/kg/injection, schedule: Q01DX001 (ip), vehicle: Klucel (hydroxypropylcellulose) (HPC) 94 % of control | dose: 200.0 mg/kg/injection, schedule: Q01DX001 (ip), vehicle: Klucel (hydroxypropylcellulose) (HPC) 98 % of control | dose: 400.0 mg/kg/injection, schedule: Q01DX001 (ip), vehicle: Klucel (hydroxypropylcellulose) (HPC) 89 % of control

CC(C)=CCc1c(N)nc(N)[nH]c1=O
inactive: [9] 98 % of control | [10] 98 % of control | [11] 106 % of control

O=C(O)CC(C[N+](=O)[O-])C(F)(F)C(F)(F)C(F)(F)F (stereo not given)
inactive: [1] 97 % of control | [2] 112 % of control | [3] 101 % of control

Cc1cccc(/C2=C/CCCCCC2)c1
inactive: dose: 37.5 mg/kg/injection, schedule: Q01DX009 (ip), vehicle: saline 100 % of control | dose: 75.0 mg/kg/injection, schedule: Q01DX001 (ip), vehicle: acetone 89 % of control | dose: 75.0 mg/kg/injection, schedule: Q01DX009 (ip), vehicle: saline 103 % of control | dose: 150.0 mg/kg/injection, schedule: Q01DX001 (ip), vehicle: acetone 88 % of control | dose: 150.0 mg/kg/injection, schedule: Q01DX009 (ip), vehicle: saline 115 % of control | dose: 225.0 mg/kg/injection, schedule: Q01DX009 (ip), vehicle: acetone 92 % of control | dose: 300.0 mg/kg/injection, schedule: Q01DX001 (ip), vehicle: acetone 93 % of control

Cc1cccc2nc(-c3ccccc3)ccc12
inactive: dose: 6.0 mg/kg/injection, schedule: Q01DX009 (ip), vehicle: other 100 % of control | dose: 12.0 mg/kg/injection, schedule: Q01DX009 (ip), vehicle: other 92 % of control | dose: 12.0 mg/kg/injection, schedule: Q04DX003 (ip), vehicle: saline 92 % of control | dose: 25.0 mg/kg/injection, schedule: Q01DX009 (ip), vehicle: other 94 % of control | dose: 25.0 mg/kg/injection, schedule: Q04DX003 (ip), vehicle: saline 98 % of control

COc1ccccc1/C=N/Nc1nnc(N/N=C/c2ccccc2OC)c2ccccc12
inactive: [13] 107 % of control | [14] 103 % of control | [15] 101 % of control | [16] 103 % of control

CN1C(C)(C)CC(O)(C(O)(c2ccccc2)c2ccccc2)CC1(C)C
inactive: dose: 100.0 mg/kg/injection, schedule: Q04DX003 (ip), vehicle: acetone 98 % of control

CCOC1(OCC)C(Cl)=C(Cl)C(Cl)=C1Cl
inactive: dose: 25.0 mg/kg/injection, schedule: Q01DX005 (ip), vehicle: Klucel (hydroxypropylcellulose) (HPC) 108 % of control | dose: 25.0 mg/kg/injection, schedule: Q01DX009 (ip), vehicle: Klucel (hydroxypropylcellulose) (HPC) 110 % of control | dose: 25.0 mg/kg/injection, schedule: Q04DX002 (ip), vehicle: Klucel (hydroxypropylcellulose) (HPC) 104 % of control | dose: 50.0 mg/kg/injection, schedule: Q01DX005 (ip), vehicle: Klucel (hydroxypropylcellulose) (HPC) 102 % of control | dose: 50.0 mg/kg/injection, schedule: Q01DX009 (ip), vehicle: Klucel (hydroxypropylcellulose) (HPC) 96 % of control | [12] 104 % of control | dose: 100.0 mg/kg/injection, schedule: Q01DX005 (ip), vehicle: Klucel (hydroxypropylcellulose) (HPC) 97 % of control
